{
  "source": "patent US12544395B2",
  "about": "“Combination compositions comprising a beta-lactamase inhibitor and uses thereof” (priority 2018, dated 2026)",
  "key": {"[1]": {"assay": "Metabolic stability in liver S9", "type": "in vitro ADME", "conditions": "Human, test conc. 3 μM"}, "[2]": {"assay": "Metabolic stability in liver S9", "type": "in vitro ADME, cynomolgus monkey", "conditions": "Monkey, test conc. 3 μM"}, "[3]": {"assay": "Metabolic stability in liver S9", "type": "in vitro ADME, beagle dog", "conditions": "Dog, test conc. 3 μM"}, "[4]": {"assay": "Metabolic stability in liver S9", "type": "in vitro ADME, Sprague-Dawley rat", "conditions": "Rat, test conc. 3 μM"}, "[5]": {"assay": "Metabolic stability in liver S9", "type": "in vitro ADME, CD-1 mouse", "conditions": "Mouse, test conc. 3 μM"}, "[6]": {"assay": "Metabolic stability in intestinal S9", "type": "in vitro ADME", "conditions": "Human, test conc. 3 μM"}, "[7]": {"assay": "Metabolic stability in intestinal S9", "type": "in vitro ADME, cynomolgus monkey", "conditions": "Monkey, test conc. 3 μM"}, "[8]": {"assay": "Metabolic stability in intestinal S9", "type": "in vitro ADME, beagle dog", "conditions": "Dog, test conc. 3 μM"}, "[9]": {"assay": "Metabolic stability in intestinal S9", "type": "in vitro ADME, Sprague-Dawley rat", "conditions": "Rat, test conc. 3 μM"}, "[10]": {"assay": "Metabolic stability in intestinal S9", "type": "in vitro ADME, CD-1 mouse", "conditions": "Mouse, test conc. 3 μM"}, "[11]": {"assay": "Metabolic stability in plasma", "type": "in vitro ADME", "conditions": "Human, test conc. 3 μM"}, "[12]": {"assay": "Metabolic stability in plasma", "type": "in vitro ADME", "conditions": "cynomolgus, Monkey, test conc. 3 μM"}, "[13]": {"assay": "Metabolic stability in plasma", "type": "in vitro ADME, beagle dog", "conditions": "Dog, test conc. 3 μM"}, "[14]": {"assay": "Metabolic stability in plasma", "type": "in vitro ADME", "conditions": "Sprague-Dawley, Rat, test conc. 3 μM"}, "[15]": {"assay": "Metabolic stability in plasma", "type": "in vitro ADME, CD-1 mouse", "conditions": "CD-1, plasma; Mouse; test conc. 3 μM"}, "[16]": {"assay": "Single ascending dose pharmacokinetics, Solutol HS-15:Water (10:90)", "type": "in vivo, Beagle dogs", "conditions": "Compound 1 300 mg/kg PO, non-fasted", "procedure": "The dosing formulation for Compound 1 was prepared in Solutol HS-15:Water (10:90 v/v) which provided dosing formulations of Compound 1 as a solution (homogeneous and chemically-stable up to a concentration of 30 mg/mL) and as a emulsion (physically- and chemically-stable at concentrations ranging from 31-100 mg/mL) with dose concentrations ranging from 2-60 mg/mL."}, "[17]": {"assay": "Oral dosing formulation in Solutol HS-15:Water, solution/emulsion stability", "type": "physicochemical", "protocol": "(§1) This study included dose concentrations ranging from 2-120 mg/mL.\nas §1"}, "[18]": {"tested_on": "ESBL-expressing Enterobacteriaceae (n = 33)", "assay": "Broth microdilution MIC, ceftibuten/Compound 2 vs IV comparators", "type": "cell-based"}, "[19]": {"tested_on": "KPC-expressing Enterobacteriaceae (n = 77)", "assay": "organism not typed", "type": "cell-based"}, "[20]": {"tested_on": "AmpC/CMY-expressing Enterobacteriaceae (n = 44)", "assay": "Broth microdilution MIC, ceftibuten/Compound 2 vs IV comparators", "type": "cell-based"}, "[21]": {"tested_on": "OXA-48-expressing Enterobacteriaceae (n = 39)", "assay": "Broth microdilution MIC, ceftibuten/Compound 2 vs IV comparators"}, "[22]": {"conditions": "Solutol HS-15:Water (10:90 v/v)"}, "[23]": {"conditions": "Solutol HS-15:Water (20:80 v/v)"}},
  "note": "Values joined by “and” are separate entries in the source; they are usually repeats but may differ in a detail not shown here. Equal values may be shown once.",
  "data": [
    {"smiles": "COCC1=C(C(=O)OC(C)OC(=O)OC(C)C)N2C(=O)[C@@H](NC(=O)/C(=N\\OC)c3csc(N)n3)[C@H]2SC1", "note": "(stereo partly shown) [Cefpodoxime proxetil]", "values": [
      {"measurement": "half-life at 3 μM", "setting": "[1]; liver S9", "value": 3.4, "unit": "min"},
      {"measurement": "half-life at 3 μM", "setting": "[2]; cynomolgus, liver S9", "value": 4.3, "unit": "min"},
      {"measurement": "half-life at 3 μM", "setting": "[3]; beagle, liver S9", "value": 4.7, "unit": "min"},
      {"measurement": "half-life at 3 μM", "setting": "[4]; Sprague-Dawley, liver S9", "value": 10.2, "unit": "min"},
      {"measurement": "half-life at 3 μM", "setting": "[5]; CD-1, liver S9", "value": 2.4, "unit": "min"},
      {"measurement": "half-life at 3 μM", "setting": "[6]; intestinal S9", "value": 35.6, "unit": "min"},
      {"measurement": "half-life at 3 μM", "setting": "[7]; cynomolgus, intestinal S9", "value": 16.9, "unit": "min"},
      {"measurement": "half-life at 3 μM", "setting": "[8]; beagle, intestinal S9", "value": "> 120", "unit": "min"},
      {"measurement": "half-life at 3 μM", "setting": "[9]; Sprague-Dawley, intestinal S9", "value": 7.4, "unit": "min"},
      {"measurement": "half-life at 3 μM", "setting": "[10]; CD-1, intestinal S9", "value": 2.5, "unit": "min"},
      {"measurement": "half-life at 3 μM", "setting": "[11]; plasma", "value": 4.8, "unit": "min"},
      {"measurement": "half-life at 3 μM", "setting": "[12]", "value": 12.4, "unit": "min"},
      {"measurement": "half-life at 3 μM", "setting": "[13]; beagle, plasma", "value": 26.2, "unit": "min"},
      {"measurement": "half-life at 3 μM", "setting": "[14]", "value": 0.8, "unit": "min"},
      {"measurement": "half-life at 3 μM", "setting": "[15]", "value": 0.6, "unit": "min"}
    ]},
    {"smiles": "CCC(=O)N[C@H]1Cc2cccc(C(=O)OCOC(=O)C(CC)CC)c2OB1O", "note": "[Compound 1, ((2-Ethylbutanoyl)oxy)methyl (R)-2-hydroxy-3-propionamido-3,4-dihydro-2H-benzo[e][1,2]oxaborinine-8-carboxylate]", "values": [
      {"measurement": "dogs exhibiting emesis", "setting": "[16]", "value": "3 of 4"},
      {"measurement": "Liver S9 Half-life", "setting": "[1]", "value": 1.0, "unit": "min"},
      {"measurement": "Liver S9 Half-life", "setting": "[2]", "value": 0.8, "unit": "min"},
      {"measurement": "Liver S9 Half-life", "setting": "[3]", "value": 0.5, "unit": "min"},
      {"measurement": "Liver S9 Half-life", "setting": "[4]", "value": 2.3, "unit": "min"},
      {"measurement": "Liver S9 Half-life", "setting": "[5]", "value": 1.2, "unit": "min"},
      {"measurement": "Intestinal S9 Half-life", "setting": "[6]", "value": 2.9, "unit": "min"},
      {"measurement": "Intestinal S9 Half-life", "setting": "[7]", "value": 11.2, "unit": "min"},
      {"measurement": "Intestinal S9 Half-life", "setting": "[8]", "value": 49.0, "unit": "min"},
      {"measurement": "Intestinal S9 Half-life", "setting": "[9]", "value": 3.9, "unit": "min"},
      {"measurement": "Intestinal S9 Half-life", "setting": "[10]", "value": 1.1, "unit": "min"},
      {"measurement": "Plasma Half-life", "setting": "[11]", "value": 10.7, "unit": "min"},
      {"measurement": "half-life at 3 μM", "setting": "[12]", "value": 22, "unit": "min"},
      {"measurement": "Plasma Half-life", "setting": "[13]", "value": 43.9, "unit": "min"},
      {"measurement": "half-life at 3 μM", "setting": "[14]", "value": 1.6, "unit": "min"},
      {"measurement": "half-life at 3 μM", "setting": "[15]", "value": 4.6, "unit": "min"},
      {"measurement": "homogeneous and chemically-stable solution up to a concentration", "setting": "[17]; [22]", "value": "≤ 30", "unit": "mg/mL"},
      {"measurement": "physically- and chemically-stable emulsion at concentrations", "setting": "[17]; [22]", "value": "31 to 100", "unit": "mg/mL"},
      {"measurement": "homogeneous and chemically-stable solution up to a concentration", "setting": "[17]; [23]", "value": "≤ 60", "unit": "mg/mL"},
      {"measurement": "physically- and chemically-stable emulsion at concentrations", "setting": "[17]; [23]", "value": "61 to 200", "unit": "mg/mL"}
    ]},
    {"smiles": "NC[C@H]1O[C@H](O[C@H]2[C@H](O)[C@@H](O[C@H]3O[C@H](CO)[C@@H](O)[C@H](N)[C@H]3O)[C@H](N)C[C@@H]2N)[C@H](N)C[C@@H]1O", "note": "[Tobramycin]", "values": [
      {"measurement": "Number of strains at MIC value 0.5 mg/L", "setting": "[18]; ESBL-expressing (n = 33)", "value": 3},
      {"measurement": "Number of strains at MIC value 1 mg/L", "setting": "[18]; ESBL-expressing (n = 33)", "value": 5},
      {"measurement": "Number of strains at MIC value 2 mg/L", "setting": "[18]; ESBL-expressing (n = 33)", "value": 2},
      {"measurement": "Number of strains at MIC value 4 mg/L", "setting": "[18]; ESBL-expressing (n = 33)", "value": 1},
      {"measurement": "Number of strains at MIC value 8 mg/L", "setting": "[18]; ESBL-expressing (n = 33)", "value": 1},
      {"measurement": "Number of strains at MIC value 16 mg/L", "setting": "[18]; ESBL-expressing (n = 33)", "value": 4},
      {"measurement": "Number of strains at MIC value […]", "setting": "[18]; ESBL-expressing (n = 33)", "value": 0},
      {"measurement": "Number of strains at MIC value ≤0.06 mg/L", "setting": "[18]; ESBL-expressing (n = 33)", "value": 0},
      {"measurement": "Number of strains at MIC value ≥32 mg/L", "setting": "[18]; ESBL-expressing (n = 33)", "value": 17},
      {"measurement": "MIC50", "setting": "[18]; iv", "value": "≥ 32", "unit": "µg/mL"},
      {"measurement": "MIC90", "setting": "[18]; iv", "value": "≥ 32", "unit": "µg/mL"},
      {"measurement": "Number of strains at MIC value 0.5 mg/L", "setting": "[19]; KPC-expressing (n = 77)", "value": 3},
      {"measurement": "Number of strains at MIC value 1 mg/L", "setting": "[19]; KPC-expressing (n = 77)", "value": 0},
      {"measurement": "Number of strains at MIC value 2 mg/L", "setting": "[19]; KPC-expressing (n = 77)", "value": 2},
      {"measurement": "Number of strains at MIC value 4 mg/L", "setting": "[19]; KPC-expressing (n = 77)", "value": 0},
      {"measurement": "Number of strains at MIC value 8 mg/L", "setting": "[19]; KPC-expressing (n = 77)", "value": 3},
      {"measurement": "Number of strains at MIC value 16 mg/L", "setting": "[19]; KPC-expressing (n = 77)", "value": 3},
      {"measurement": "Number of strains at MIC value […]", "setting": "[19]; KPC-expressing (n = 77)", "value": "0 and 1"},
      {"measurement": "Number of strains at MIC value ≤0.06 mg/L", "setting": "[19]; KPC-expressing (n = 77)", "value": 0},
      {"measurement": "Number of strains at MIC value ≥32 mg/L", "setting": "[19]; KPC-expressing (n = 77)", "value": 65},
      {"measurement": "MIC50", "setting": "[19]; iv", "value": "≥ 32", "unit": "µg/mL"},
      {"measurement": "MIC90", "setting": "[19]; iv", "value": "≥ 32", "unit": "µg/mL"},
      {"measurement": "Number of strains at MIC value 0.5 mg/L", "setting": "[20]; AmpC/CMY-expressing (n = 44)", "value": 2},
      {"measurement": "Number of strains at MIC value 1 mg/L", "setting": "[20]; AmpC/CMY-expressing (n = 44)", "value": 2},
      {"measurement": "Number of strains at MIC value 2 mg/L", "setting": "[20]; AmpC/CMY-expressing (n = 44)", "value": 0},
      {"measurement": "Number of strains at MIC value 4 mg/L", "setting": "[20]; AmpC/CMY-expressing (n = 44)", "value": 3},
      {"measurement": "Number of strains at MIC value 8 mg/L", "setting": "[20]; AmpC/CMY-expressing (n = 44)", "value": 3},
      {"measurement": "Number of strains at MIC value 16 mg/L", "setting": "[20]; AmpC/CMY-expressing (n = 44)", "value": 6},
      {"measurement": "Number of strains at MIC value […]", "setting": "[20]; AmpC/CMY-expressing (n = 44)", "value": 0},
      {"measurement": "Number of strains at MIC value ≤0.06 mg/L", "setting": "[20]; AmpC/CMY-expressing (n = 44)", "value": 0},
      {"measurement": "Number of strains at MIC value ≥32 mg/L", "setting": "[20]; AmpC/CMY-expressing (n = 44)", "value": 28},
      {"measurement": "MIC50", "setting": "[20]; iv", "value": "≥ 32", "unit": "µg/mL"},
      {"measurement": "MIC90", "setting": "[20]; iv", "value": "≥ 32", "unit": "µg/mL"},
      {"measurement": "MIC50", "setting": "[21]", "value": 16, "unit": "µg/mL"},
      {"measurement": "MIC90", "setting": "[21]", "value": "≥ 32", "unit": "µg/mL"}
    ]}
  ]
}
